Data from patent US20250000834A1, “COMPOSITIONS AND METHODS FOR TARGETING GPCR FOR THE PREVENTION AND TREATMENT OF PAIN” (Duke University, priority 2021, published 2025).

What was measured:
[1] = target: T1, GPR37L1 (Mus musculus, UniProt Q99JG2); assay: Lipid overlay assay on MaR1-coated PVDF membrane with mouse DRG lysates; format: binding; conditions: WT DRG lysate; MaR1 coated at 10 nM
T1 construct: from tissue; host or cells: mouse dorsal root ganglia (DRG)
T1 sequence (Q99JG2 25-481): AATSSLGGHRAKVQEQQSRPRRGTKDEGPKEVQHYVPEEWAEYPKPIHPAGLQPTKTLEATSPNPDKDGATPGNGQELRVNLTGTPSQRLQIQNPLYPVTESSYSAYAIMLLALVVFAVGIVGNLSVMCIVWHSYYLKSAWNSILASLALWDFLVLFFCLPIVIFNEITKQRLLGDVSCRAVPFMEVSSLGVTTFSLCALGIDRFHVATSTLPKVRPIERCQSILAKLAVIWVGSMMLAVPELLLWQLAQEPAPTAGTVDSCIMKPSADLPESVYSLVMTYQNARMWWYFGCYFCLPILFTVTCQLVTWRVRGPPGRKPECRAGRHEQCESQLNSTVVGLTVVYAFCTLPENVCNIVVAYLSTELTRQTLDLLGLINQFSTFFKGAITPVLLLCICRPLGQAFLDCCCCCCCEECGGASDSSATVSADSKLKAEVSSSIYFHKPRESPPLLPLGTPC
Description: Lipids overlay assay: Lipids membrane coating and protein overlay assay were performed as previously described (S. Dowler, et al., Protein lipid overlay assay. Sci STKE 2002, p 16 (2002)). […] Compound-coated membranes were dried and blocked with 1% BSA. The coated membranes were incubated with lysates obtained from hGPR37L1-transfected HEK293 cells or mouse DRG lysate from WT or Gpr37l1 KO mice for 2 hours, followed by detection using an anti-GRP37L1 antibody (Bioss (Woburn, MA), Rabbit, 1:1000, #bs-15390R) or anti-flag antibody (Cell Signaling Technology (Danvers, MA), Rabbit, 1:1000, #14793). Blots were further incubated with an HRP-conjugated secondary anti-rabbit antibody (Jackson ImmunoResearch Laboratories (West Grove, PA), raised in donkey, 1:5000), developed in ECL solution (Pierce Biotechnology, Waltham, MA), and the signal was visualized from ChemiDoc XRS (Bio-Rad, Hercules, CA). The signal Intensity was quantified by Image J software (NIH).
To confirm whether DRG-expressed GPR37L1 would also interact with MaR1, a lipid overlay assay was performed on MaR1-coated PVDF membrane using DRG lysates from WT or Gpr37l1 KO mice. To determine dose-dependent binding, MaR1 was coated at the concentrations of 0.01 nM, 0.1 nM, 1 nM, and 10 nM.

[2] = system: neuron-glia mixed cultures from DRG; assay: IL-1β release in SGC-neuron co-cultures from DRG (ELISA); format: cell-based, mouse; conditions: 100 nM, cells from WT mice, 1 μM paclitaxel 24 h
Description: SGC and neuron co-culture: DRG were collected from wild-type (WT) or knock-out (KO) mice (8 weeks male) and incubated in 1 mg/ml Collagenase/Dispase (Roche Diagnostics, Madison, WI, USA) at 37° C. for 60 min, with agitation at 100 revolutions per minute (RPM) and then followed by incubation in 0.05% trypsin/EDTA for 10 min. The digestion enzymes were prepared in Dulbecco's modified Eagle medium/F12 with GlutaMAX (ThermoFisher, Waltham, MA). After incubation of 0.1% trypsin inhibitor and centrifugation (300 G), the cell pellet was gently triturated in a neurobasal medium containing […]. Dissociated DRG cells were seeded on non-coated culture dishes for 4 hrs. SGC and neurons were included for co-culture by hand-shaking of the culture flasks gently for 5 to 10 min and then resuspended by replacing with a new neurobasal medium. The attached glial-like cells were cultured in the DMEM/F12 medium containing 10% fetal bovine serum and 1% streptomycin/penicillin to promote cell growth and inhibition of differentiation. After 2 to 6 days, the glial-like cells were differentiated by application of the serum-free neural basal medium. […]

binding spot in lipid overlay assay [1]: specific binding spot was observed
SMILES: CC/C=C\C/C=C\C[C@H](O)\C=C/C=C/C=C/[C@H](O)C/C=C\CCC(=O)O [MaR1, Maresin 1]
effect on paclitaxel-induced IL-1β secretion [2]: blocked
